The values that follow come from patent publication US8148391B2 (Cephalon, Inc., priority 2006, dated 2012).

Experiment [1] addresses T1, baculovirus-expressed ALK (Homo sapiens, UniProt Q9UM73).
T1 construct: host or cells: baculovirus expression system
Kind of experiment: ALK Kinase Assay (ELISA-type, time-resolved fluorescence). The format is biochemical. To be noted: ALK kinase inhibition, 1 μM ATP; read-out: ALK Activity. The method in brief: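 Substrate coating: phospholipase C-γ, 10 μg/mL in TBS. Kinase step: 30 ng/ml ALK, 15 min, 37° C. Detection and analysis: Eu-N1 PT66 antibody, with IC50 fitted as a sigmoidal variable-slope dose-response curve.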
A general note: In an ELISA, binding on a coated surface is turned into a signal by an enzyme label.

Experiment [2] addresses T2, c-Met (cytoplasmic domain) (Homo sapiens, UniProt P08581).
T2 construct: 10 ng/mL c-Met (cytoplasmic domain, Invitrogen Corporation #PV3143); purchased Invitrogen Corporation PV3143
Kind of experiment: c-Met Kinase Assay (same methods as for ALK, with modifications). Type of experiment: biochemical. To be noted: c-Met kinase inhibition, 1 μM ATP; read-out: cMet Activity. The method in brief:
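Wells were coated with 10 μg/mL phospholipase C-γ substrate in TBS, and reactions were started with 10 ng/mL c-Met cytoplasmic domain and run at 37° C for 15 minutes. Phosphorylated product was detected with Eu-N1-labeled PT66 antibody. IC50 values came from sigmoidal variable-slope fits of percent inhibition versus log compound concentration.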

The structures appear in SMILES notation.

T1 sequence (Q9UM73 19-1620): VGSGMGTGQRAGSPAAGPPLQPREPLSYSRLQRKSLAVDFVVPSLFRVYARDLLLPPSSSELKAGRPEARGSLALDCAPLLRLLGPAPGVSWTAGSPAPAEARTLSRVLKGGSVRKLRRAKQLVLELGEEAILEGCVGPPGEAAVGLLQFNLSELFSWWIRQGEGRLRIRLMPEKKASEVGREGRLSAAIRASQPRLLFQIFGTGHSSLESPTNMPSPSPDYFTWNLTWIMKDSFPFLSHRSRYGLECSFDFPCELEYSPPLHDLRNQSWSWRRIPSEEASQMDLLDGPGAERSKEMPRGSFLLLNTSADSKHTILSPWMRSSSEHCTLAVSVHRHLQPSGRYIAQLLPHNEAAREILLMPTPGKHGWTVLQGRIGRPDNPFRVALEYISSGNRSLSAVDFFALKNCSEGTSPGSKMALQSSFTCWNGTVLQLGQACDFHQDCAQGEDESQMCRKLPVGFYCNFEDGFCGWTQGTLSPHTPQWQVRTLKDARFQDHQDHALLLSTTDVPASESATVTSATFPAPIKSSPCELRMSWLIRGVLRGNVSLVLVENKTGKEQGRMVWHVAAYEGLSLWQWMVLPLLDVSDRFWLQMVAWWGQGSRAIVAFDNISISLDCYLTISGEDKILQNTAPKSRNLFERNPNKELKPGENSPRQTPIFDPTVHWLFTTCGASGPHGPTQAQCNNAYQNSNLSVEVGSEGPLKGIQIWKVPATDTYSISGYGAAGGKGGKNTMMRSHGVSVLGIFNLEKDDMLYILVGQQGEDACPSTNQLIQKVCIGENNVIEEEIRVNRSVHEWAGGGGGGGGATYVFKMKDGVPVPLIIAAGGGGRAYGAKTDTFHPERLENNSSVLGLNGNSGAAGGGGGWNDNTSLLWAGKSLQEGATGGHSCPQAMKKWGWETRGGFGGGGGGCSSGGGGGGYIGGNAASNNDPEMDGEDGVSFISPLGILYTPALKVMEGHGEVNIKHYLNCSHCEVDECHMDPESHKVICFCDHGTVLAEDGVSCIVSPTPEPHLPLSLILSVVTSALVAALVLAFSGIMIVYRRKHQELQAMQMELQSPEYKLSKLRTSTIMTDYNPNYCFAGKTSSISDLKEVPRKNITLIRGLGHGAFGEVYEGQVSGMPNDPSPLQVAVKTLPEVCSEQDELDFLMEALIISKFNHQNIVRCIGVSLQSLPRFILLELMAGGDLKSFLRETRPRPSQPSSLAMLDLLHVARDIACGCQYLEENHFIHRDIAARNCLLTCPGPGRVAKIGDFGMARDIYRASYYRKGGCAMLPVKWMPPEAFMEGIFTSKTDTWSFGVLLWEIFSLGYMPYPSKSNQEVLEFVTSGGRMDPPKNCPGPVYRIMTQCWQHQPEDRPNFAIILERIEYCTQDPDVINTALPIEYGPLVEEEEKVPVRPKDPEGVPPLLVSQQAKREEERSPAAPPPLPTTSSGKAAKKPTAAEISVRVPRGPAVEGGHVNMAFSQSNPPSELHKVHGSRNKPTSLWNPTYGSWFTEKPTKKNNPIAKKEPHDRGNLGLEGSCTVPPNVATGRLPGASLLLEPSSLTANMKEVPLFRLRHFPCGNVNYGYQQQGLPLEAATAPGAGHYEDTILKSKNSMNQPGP
T2 sequence (P08581 956-1390 limits assumed): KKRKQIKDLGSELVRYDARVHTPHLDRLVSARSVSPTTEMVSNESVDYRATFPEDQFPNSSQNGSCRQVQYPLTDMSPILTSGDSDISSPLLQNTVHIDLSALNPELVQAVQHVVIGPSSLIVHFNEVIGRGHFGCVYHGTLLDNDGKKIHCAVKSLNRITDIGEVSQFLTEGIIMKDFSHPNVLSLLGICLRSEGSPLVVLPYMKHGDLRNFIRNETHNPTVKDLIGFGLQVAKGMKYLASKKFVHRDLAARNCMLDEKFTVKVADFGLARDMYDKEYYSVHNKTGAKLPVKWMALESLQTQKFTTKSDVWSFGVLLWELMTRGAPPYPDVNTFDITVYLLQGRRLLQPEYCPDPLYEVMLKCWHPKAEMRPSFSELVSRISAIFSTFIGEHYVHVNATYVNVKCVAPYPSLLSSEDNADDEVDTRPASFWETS

Turning to `CNC(=O)c1cccc(F)c1Nc1nc(Nc2ccc3c(c2)CCCC(=O)N3CCOC)ncc1Br` [Example 1472, 2-{5-Bromo-2-[1-(2-methoxy-ethyl)-2-oxo-2,3,4,5-tetrahydro-1H-benzo[b]azepin-7-ylamino]-pyrimidin-4-ylamino}-3-fluoro-N-methyl-benzamide], the IC50 in experiment [1] and in experiment [2] was less than 100 nM each time.
In the case of `CNC(=O)c1cccc(F)c1Nc1nc(Nc2ccc3c(c2)N(CCOC)C(=O)CCC3)ncc1Br` [Example 1473, 2-{5-Bromo-2-[1-(2-methoxy-ethyl)-2-oxo-2,3,4,5-tetrahydro-1H-benzo[b]azepin-8-ylamino]-pyrimidin-4-ylamino}-3-fluoro-N-methyl-benzamide], the figures for the IC50 in experiment [1] and in experiment [2] were 100 to 1000 nM and less than 100 nM, respectively.
Regarding `CNC(=O)c1cccc(F)c1Nc1nc(Nc2ccc3c(c2)N(C(C)C)C(=O)CCC3)ncc1Cl` [Example 1474, 2-[5-Chloro-2-(1-isopropyl-2-oxo-2,3,4,5-tetrahydro-1H-benzo[b]azepin-8-ylamino)-pyrimidin-4-ylamino]-3-fluoro-N-methyl-benzamide], the IC50 in experiment [1] is less than 100 nM; in experiment [2] it was 100 to 1000 nM.
The matching figures for `Cc1cccc(C(N)=O)c1Nc1nc(Nc2ccc3c(c2)N(C(C)C)C(=O)CCC3)ncc1Cl` [Example 1475, 2-[5-Chloro-2-(1-isopropyl-2-oxo-2,3,4,5-tetrahydro-1H-benzo[b]azepin-8-ylamino)-pyrimidin-4-ylamino]-3-methyl-benzamide]: 100 to 1000 nM and more than 10000 nM.
As for `Cc1cccc(C(N)=O)c1Nc1nc(Nc2ccc3c(c2)C(C)(C)CCC(=O)N3)ncc1Cl` [Example 1476, 2-[5-Chloro-2-(5,5-dimethyl-2-oxo-2,3,4,5-tetrahydro-1H-benzo[b]azepin-7-ylamino)-pyrimidin-4-ylamino]-3-methyl-benzamide], the IC50 in experiment [1] is 100 to 1000 nM; in experiment [2], 1000 to 10000 nM.
The like results for `CNC(=O)c1sccc1Nc1nc(Nc2ccc3c(c2)NC(=O)CCC3)ncc1Cl` [Example 1477, 3-[5-Chloro-2-(2-oxo-2,3,4,5-tetrahydro-1H-benzo[b]azepin-8-ylamino)-pyrimidin-4-ylamino]-thiophene-2-carboxylic acid methylamide] were, in that order, 100 to 1000 nM and 100 to 1000 nM.
For the compound `CNC(=O)c1sccc1Nc1nc(Nc2ccc3c(c2)N(CCOC)C(=O)CCC3)ncc1Cl` [Example 1478, 3-{5-Chloro-2-[1-(2-methoxy-ethyl)-2-oxo-2,3,4,5-tetrahydro-1H-benzo[b]azepin-8-ylamino]-pyrimidin-4-ylamino}-thiophene-2-carboxylic acid methylamide], the results for the IC50 in experiment [1] and in experiment [2] were 100 to 1000 nM and less than 100 nM, respectively.
With `CNC(=O)c1ccc2c(c1Nc1nc(Nc3ccc4c(c3)CCCC(=O)N4C)ncc1Cl)OCO2` [Example 1479, 4-[5-Chloro-2-(1-methyl-2-oxo-2,3,4,5-tetrahydro-1H-benzo[b]azepin-7-ylamino)-pyrimidin-4-ylamino]-benzo[1,3]dioxole-5-carboxylic acid methyl amide], the IC50 in experiment [1] is 100 to 1000 nM; in experiment [2], 1000 to 10000 nM.
In the case of `CNC(=O)c1ccc2c(c1Nc1nc(Nc3ccc4c(c3)CCN(CCOC)CC4)ncc1Cl)OCO2` [Example 1480, 4-{5-Chloro-2-[3-(2-methoxy-ethyl)-2,3,4,5-tetrahydro-1H-benzo[d]azepin-7-ylamino]-pyrimidin-4-ylamino}-benzo[1,3]dioxole-5-carboxylic acid methylamide], the figures for the IC50 in experiment [1] and in experiment [2] were 100 to 1000 nM and 1000 to 10000 nM, respectively.
In the case of `CNC(=O)c1ccc2c(c1Nc1nc(Nc3ccc4c(c3)NC(=O)CCC4(C)C)ncc1Cl)OCO2` [Example 1481, 4-[5-Chloro-2-(5,5-dimethyl-2-oxo-2,3,4,5-tetrahydro-1H-benzo[b]azepin-8-ylamino)-pyrimidin-4-ylamino]-benzo[1,3]dioxole-5-carboxylic acid methyl amide], the IC50 in experiment [1] and in experiment [2] was 100 to 1000 nM throughout.
For `CNC(=O)c1ccc2c(c1Nc1nc(Nc3ccc4c(c3)NC(=O)CCC4)ncc1Cl)OCO2` [Example 1482, 4-[5-Chloro-2-(2-oxo-2,3,4,5-tetrahydro-1H-benzo[b]azepin-8-ylamino)-pyrimidin-4-ylamino]-benzo[1,3]dioxole-5-carboxylic acid methylamide], the figures for the IC50 in experiment [1] and in experiment [2] were 100 to 1000 nM and 1000 to 10000 nM, respectively.
The like results for `CN1CCN(C2CCN(C3CCc4ccc(Nc5ncc(Cl)c(Nc6c(F)cccc6OCC#N)n5)cc4CC3)CC2)CC1` (stereo not drawn) [Example 1483, [2-(5-Chloro-2-{7-[4-(4-methyl-piperazin-1-yl)-piperidin-1-yl]-6,7,8,9-tetrahydro-5H-benzocyclohepten-2-ylamino}-pyrimidin-4-ylamino)-3-fluoro-phenoxy]-acetonitrile] were, in that order, less than 100 nM and less than 100 nM.
Regarding `CNC(=O)c1ccsc1Nc1nc(Nc2ccc3c(c2)CCN(CCOC)CC3)ncc1Cl` [Example 1484, 2-{5-Chloro-2-[3-(2-methoxy-ethyl)-2,3,4,5-tetrahydro-1H-benzo[d]azepin-7-ylamino]-pyrimidin-4-ylamino}-thiophene-3-carboxylic acid methylamide], the IC50 in experiment [1] and in experiment [2] was 100 to 1000 nM in each case.
With `CNC(=O)c1ccsc1Nc1nc(Nc2ccc3c(c2)NC(=O)CCC3)ncc1Cl` [Example 1485, 2-[5-Chloro-2-(2-oxo-2,3,4,5-tetrahydro-1H-benzo[b]azepin-8-ylamino)-pyrimidin-4-ylamino]-thiophene-3-carboxylic acid methylamide], the IC50 in experiment [1] lay in the range of 1000 to 10000 nM; in experiment [2] it was 100 to 1000 nM.
For `CNC(=O)c1ccsc1Nc1nc(Nc2ccc3c(c2)NC(=O)CCC3(C)C)ncc1Cl` [Example 1486, 2-[5-Chloro-2-(5,5-dimethyl-2-oxo-2,3,4,5-tetrahydro-1H-benzo[b]azepin-8-ylamino)-pyrimidin-4-ylamino]-thiophene-3-carboxylic acid methyl amide], the IC50 in experiment [1] and in experiment [2] was 1000 to 10000 nM each time.
Consider `CNC(=O)c1ccsc1Nc1nc(Nc2ccc3c(c2)CCCC(=O)N3C)ncc1Cl` [Example 1487, 2-[5-Chloro-2-(1-methyl-2-oxo-2,3,4,5-tetrahydro-1H-benzo[b]azepin-7-ylamino)-pyrimidin-4-ylamino]-thiophene-3-carboxylic acid methylamide], for which the IC50 in experiment [1] and in experiment [2] was 100 to 1000 nM in each case.
For the compound `CNC(=O)c1cccc(Cl)c1Nc1nc(Nc2ccc3c(c2)CCC(N2CCC(N4CCN(C)CC4)CC2)CC3)ncc1Cl` (stereo not drawn) [Example 1488, 3-Chloro-2-(5-chloro-2-{7-[4-(4-methyl-piperazin-1-yl)-piperidin-1-yl]-6,7,8,9-tetrahydro-5H-benzocyclohepten-2-ylamino}-pyrimidin-4-ylamino)-N-methyl-benzamide], the IC50 in experiment [1] is 100 to 1000 nM; in experiment [2], less than 100 nM.
The matching figures for `CNC(=O)c1cccc(F)c1Nc1nc(Nc2ccc3c(c2)N(C(C)=O)CCCC3)ncc1Cl` [Example 1489, 2-[2-(1-Acetyl-2,3,4,5-tetrahydro-1H-benzo[b]azepin-8-ylamino)-5-chloro-pyrimidin-4-ylamino]-3-fluoro-N-methyl-benzamide]: 100 to 1000 nM and less than 100 nM.
The matching figures for `C#CCNC(=O)c1cccc(F)c1Nc1nc(Nc2ccc3c(c2)N(C(C)=O)CCCC3)ncc1Cl` [Example 1490, 2-[2-(1-Acetyl-2,3,4,5-tetrahydro-1H-benzo[b]azepin-8-ylamino)-5-chloro-pyrimidin-4-ylamino]-3-fluoro-N-prop-2-ynyl-benzamide]: 100 to 1000 nM and less than 100 nM.
The matching figures for `CNC(=O)c1cccc(F)c1Nc1nc(Nc2ccc3c(c2)NC(=O)C(N2CCOCC2)CC3)ncc1Cl` (stereo not drawn) [Example 1491, 2-[5-Chloro-2-(3-morpholin-4-yl-2-oxo-2,3,4,5-tetrahydro-1H-benzo[b]azepin-8-ylamino)-pyrimidin-4-ylamino]-3-fluoro-N-methyl-benzamide]: less than 100 nM and less than 100 nM.
Turning to `COCCN1CCc2ccc(Nc3ncc(Cl)c(Nc4ccccc4S(=O)(=O)N4CCC(O)C4)n3)cc2CC1` (stereo not drawn) [Example 1492, 1-(2-{5-Chloro-2-[3-(2-methoxy-ethyl)-2,3,4,5-tetrahydro-1H-benzo[d]azepin-7-ylamino]-pyrimidin-4-ylamino}-benzenesulfonyl)-pyrrolidin-3-ol], the IC50 in experiment [1] and in experiment [2] was less than 100 nM throughout.
Turning to `O=C1CCCc2ccc(Nc3ncc(Cl)c(Nc4ccccc4S(=O)(=O)N4CCC(O)C4)n3)cc2N1` (stereo not drawn) [Example 1493, 8-{5-Chloro-4-[2-(3-hydroxy-pyrrolidine-1-sulfonyl)-phenylamino]-pyrimidin-2-ylamino}-1,3,4,5-tetrahydro-benzo[b]azepin-2-one], the IC50 in experiment [1] and in experiment [2] was less than 100 nM each time.
For the compound `Cc1nnc(-c2ccccc2Nc2nc(Nc3ccc4c(c3)CCOC(=O)N4C)ncc2Cl)s1` [Example 1494, 2-{5-Chloro-4-[2-(5-methyl-[1,3,4]thiadiazol-2-yl)-phenylamino]-pyrimidin-2-ylamino}-5-methyl-8,9-dihydro-5H-7-oxa-5-aza-benzocyclohepten-6-one], the IC50 in experiment [1] is 100 to 1000 nM; in experiment [2], less than 100 nM.
The like results for `CNC(=O)c1cccc(F)c1Nc1nc(Nc2ccc3c(c2)NC(=O)C(NCCOC)CC3)ncc1Cl` (stereo not drawn) [Example 1495, 2-{5-Chloro-2-[3-(2-methoxy-ethylamino)-2-oxo-2,3,4,5-tetrahydro-1H-benzo[b]azepin-8-ylamino]-pyrimidin-4-ylamino}-3-fluoro-N-methyl-benzamide] were, in that order, 1000 to 10000 nM and 100 to 1000 nM.
